The values that follow come from ChEMBL document CHEMBL4619725, “Ultrasounds-mediated 10-seconds synthesis of chalcones as potential farnesyltransferase inhibitors” (Bioorg Med Chem Lett, 2020).

Calls of active or inactive are those of the source. The calls are words filed in the database; no cut-off is given here.

For one assay, the system named is LOX IMVI. In words: Cytostatic activity against human LOXIMVI cells assessed as growth inhibition at 10 uM incubated for 48 hrs by sulforhodamine B assay relative to control. Particulars: for inhibition of growth at 10 µM: read-out: GI. Type of assay: functional. A general note: The SRB assay estimates cell density from bound dye.
In a further assay the test system is KM12. In words: Cytostatic activity against human KM12 cells assessed as growth inhibition at 10 uM incubated for 48 hrs by sulforhodamine B assay relative to control. Type of assay: functional. As to conditions: for inhibition of growth at 10 µM: KM12, 48 h, read-out: GI.
A further assay deals with NCI-H522. In words: Cytostatic activity against human NCI-H522 cells assessed as growth inhibition at 10 uM incubated for 48 hrs by sulforhodamine B assay relative to control. As to conditions: NCI-H522, 48 h, read-out: GI. Type of assay: functional.
The species named for another assay is Homo sapiens. In words: Inhibition of C-terminal His6-tagged human recombinat FTase expressed in Escherichia coli BL21 RIL (DE3) cells using Dansyl-GCVLS peptide and farnesyl pyrophosphate as substrate at 100 uM measured for 15 mins by fluorimetric analysis relative to control.
Assay [1] relates to SW-620. In words: Cytostatic activity against human SW620 cells assessed as growth inhibition at 10 uM incubated for 48 hrs by sulforhodamine B assay relative to control. Type of assay: functional. Particulars: for inhibition of growth at 10 µM: SW-620, 48 h, read-out: GI.
In a further assay the test system is OVCAR-3. In words: Cytostatic activity against human OVCAR3 cells assessed as growth inhibition at 10 uM incubated for 48 hrs by sulforhodamine B assay relative to control. Format: functional. As to conditions: for inhibition of growth at 10 µM: OVCAR-3, 48 h, read-out: GI.
The next assay relates to K562. In words: Cytostatic activity against human K562 cells assessed as growth inhibition at 10 uM incubated for 48 hrs by sulforhodamine B assay relative to control. Type of assay: functional. As to conditions: K562, 48 h, read-out: GI.
In a further assay the test system is HCT-116. In words: Cytostatic activity against human HCT116 cells assessed as growth inhibition at 10 uM incubated for 48 hrs by sulforhodamine B assay relative to control. Particulars: HCT-116, 48 h, read-out: GI. Type of assay: functional.
Assay [2] can be described thus: Inhibition of C-terminal His6-tagged human recombinat FTase expressed in Escherichia coli BL21 RIL (DE3) cells using Dansyl-GCVLS peptide and farnesyl pyrophosphate as substrate measured for 15 mins by fluorimetric analysis.
In a further assay the test system is SR. In words: Cytostatic activity against human SR cells assessed as growth inhibition at 10 uM incubated for 48 hrs by sulforhodamine B assay relative to control. Format: functional. As to conditions: for inhibition of growth at 10 µM: read-out: GI.
For another assay, the system named is CCRF-CEM. In words: Cytostatic activity against human CCRF-CEM cells assessed as growth inhibition at 10 uM incubated for 48 hrs by sulforhodamine B assay relative to control. As to conditions: for inhibition of growth at 10 µM: read-out: GI. Format: functional.
Another assay has as its system RPMI-8226. In words: Cytostatic activity against human RPMI8226 cells assessed as growth inhibition at 10 uM incubated for 48 hrs by sulforhodamine B assay relative to control. Type of assay: functional. Particulars: for inhibition of growth at 10 µM: RPMI-8226, 48 h, read-out: GI.
The subject of a further assay is MCF7. In words: Cytostatic activity against human MCF7 cells assessed as growth inhibition at 10 uM incubated for 48 hrs by sulforhodamine B assay relative to control. Type of assay: functional. Particulars: MCF7, 48 h, read-out: GI.
Assay [3] has as its system SW-620. In words: Cytotoxicity against human SW620 cells assessed as growth inhibition of preexisting tumor cells at 10 uM incubated for 48 hrs by sulforhodamine B assay relative to control. Format: functional. Particulars: SW-620, 48 h, read-out: GI.

The inhibition is the change of the read-out against control, counted positive when it falls. By IC50 is commonly meant the concentration that gives 50% inhibition.

As for `O=C(/C=C/c1ccc(Cl)c(Cl)c1)c1ccc(Cl)c(Cl)c1`, the “growth inhibition (GI)” value in the assay with LOX IMVI, in the assay on KM12, with SW-620 [1] and with OVCAR-3 was “inactive” in each case. The inhibition of growth at 10 µM in the assay on NCI-H522 amounted to 8.1%; in the assay with K562, 9.7%; in the assay with HCT-116 it was 6.1%; in the assay with SR it was 6.1%; in the assay with CCRF-CEM, 3.7%; with RPMI-8226 it was 7.2%. For the same compound, in the assay with MCF7, the inhibition of growth at 10 µM was 14.2%. Moreover, the inhibition in the assay listed under Homo sapiens amounted to 60%. Moreover, the IC50 in assay [2] came out at 96.6 µM.
With `O=C(/C=C/c1ccc(Cl)cc1Cl)c1ccc(Cl)c(Cl)c1`, the “growth inhibition (GI)” value in the assay on LOX IMVI, with SW-620 [1], in the assay on OVCAR-3 and in the assay with CCRF-CEM was “inactive” in each case. For the same compound, the inhibition of growth at 10 µM in the assay with KM12 came to 0.3%; in the assay on NCI-H522 it was 11.4%; in the assay with K562, 2.4%; in the assay with HCT-116 it was 13.9%; with SR, 2.8%; in the assay on RPMI-8226 it was 5.4%. Further, the inhibition of growth at 10 µM with MCF7 stood at 28.3%. In the assay listed under Homo sapiens, the inhibition was found to be 74%. In assay [2], the 50% inhibitory concentration (IC50) is 8.7 µM.
Turning to `O=C(/C=C/c1cccs1)c1ccc(Cl)c(Cl)c1`, the “growth inhibition (GI)” value in the assay with LOX IMVI, in the assay on OVCAR-3, in the assay with SR, with CCRF-CEM and with RPMI-8226 was “inactive” throughout. Also, the inhibition of growth at 10 µM in the assay on KM12 was determined as 2.8%; in the assay on NCI-H522, 8.6%; in the assay with SW-620 [1], 5.5%; with K562, 1.7%; in the assay on HCT-116 it was 2.2%; in the assay on MCF7, 72.5%. Besides, the inhibition in the assay listed under Homo sapiens worked out at 98%. Moreover, in assay [2], the IC50 is 7.4 µM.
`O=C(/C=C/c1ccc(Cl)nc1)c1ccc(Cl)cc1Cl`: the inhibition of growth at 10 µM in the assay on LOX IMVI came out at 93.5%; in the assay on KM12, 23.5%; in the assay with NCI-H522 it was 61.3%; with SW-620 [1] it was 100%; with OVCAR-3 it was 21.5%; with SW-620 [3], 33.2%. Besides, the inhibition of growth at 10 µM in the assay on K562 stood at 92.3%; in the assay with HCT-116, 63.3%; in the assay on CCRF-CEM, 93%; in the assay with MCF7 it was 82.9%. Moreover, in the assay filed under Homo sapiens, the inhibition turned out to be 53%.
Turning to `O=C(/C=C/c1ccc(Cl)c(Cl)c1)c1cccs1`, the inhibition of growth at 10 µM in the assay on LOX IMVI worked out at 45.7%; in the assay with KM12 it was 15.4%; in the assay with NCI-H522 it was 24.7%; in the assay on SW-620 [1] it was 29.6%; in the assay on OVCAR-3, 6.8%; in the assay with K562 it was 71.6%. For the same compound, the inhibition of growth at 10 µM in the assay with HCT-116 was found to be 39.8%; in the assay on SR, 78%; with CCRF-CEM, 31.3%; in the assay with RPMI-8226, 66.9%; with MCF7 it was 87.1%. Also, the inhibition in the assay listed under Homo sapiens was 47%.
